# ChEMBL document CHEMBL3044830, “Synthesis, characterization, antibacterial, antifungal, and immunomodulating activities of gatifloxacin derivatives” (Med Chem Res, 2010)
# Columns and labels:
# [1] = system: Fusarium solani; assay: Antifungal activity against Fusarium solani assessed as concentration required to obtain a zone of inhibition of 40 mm after 7 days by disk diffusion method; assay type: functional
# [2] = system: Proteus mirabilis; assay: Antibacterial activity against Proteus mirabilis assessed as concentration required to obtain a zone of inhibition of 10 mm after 18 to 24 hr by disc diffusion method; assay type: functional
# [3] = system: Proteus mirabilis; assay: Antibacterial activity against Proteus mirabilis assessed as zone of inhibition at 5 to 40 ug/ml after 18 to 24 hr by disc diffusion method relative to gatifloxacin; assay type: functional
# [4] = system: Trichophyton rubrum; assay: Antifungal activity against Trichophyton rubrum assessed as concentration required to obtain a zone of inhibition of 40 mm after 7 days by disk diffusion method; assay type: functional
# [5] = system: Candida albicans; assay: Antifungal activity against Candida albicans assessed as zone of inhibition at 5 to 40 ug/ml after 7 days by disk diffusion method relative to gatifloxacin; assay type: functional
# [6] = system: Trichophyton rubrum; assay: Antifungal activity against Trichophyton rubrum assessed as zone of inhibition at 5 to 40 ug/ml after 7 days by disk diffusion method relative to gatifloxacin; assay type: functional
# [7] = system: Escherichia coli; assay: Antibacterial activity against Escherichia coli assessed as zone of inhibition at 5 to 40 ug/ml after 18 to 24 hr by disk diffusion method relative to gatifloxacin; assay type: functional
# [8] = system: Fusarium solani; assay: Antifungal activity against Fusarium solani assessed as concentration required to obtain a zone of inhibition of 20 mm after 7 days by disk diffusion method; assay type: functional
# [9] = system: Shigella sp.; assay: Antibacterial activity against Shigella typhi assessed as concentration required to obtain a zone of inhibition of 5 mm after 18 to 24 hr by disc diffusion method; assay type: functional
# [10] = system: Fusarium solani; assay: Antifungal activity against Fusarium solani assessed as zone of inhibition at 5 to 40 ug/ml after 7 days by disk diffusion method relative to gatifloxacin; assay type: functional
# [11] = system: Citrobacter; assay: Antibacterial activity against Citrobacter assessed as concentration required to obtain a zone of inhibition of 5 mm after 18 to 24 hr by disk diffusion method; assay type: functional
# [12] = Antibacterial activity against Hofmanni bacterium assessed as concentration required to obtain a zone of inhibition of 20 mm after 18 to 24 hr by disc diffusion method
# [13] = system: Bacillus subtilis; assay: Antibacterial activity against Bacillus subtilis assessed as concentration required to obtain a zone of inhibition of 5 mm after 18 to 24 hr by disk diffusion method; assay type: functional
# [14] = system: Bacillus subtilis; assay: Antibacterial activity against Bacillus subtilis assessed as zone of inhibition at 5 to 40 ug/ml after 18 to 24 hr by disk diffusion method relative to gatifloxacin; assay type: functional
# [15] = system: Proteus mirabilis; assay: Antibacterial activity against Proteus mirabilis assessed as concentration required to obtain a zone of inhibition of 5 mm after 18 to 24 hr by disc diffusion method; assay type: functional
# [16] = Antibacterial activity against Hofmanni bacterium assessed as zone of inhibition after 18 to 24 hr by disc diffusion method relative to gatifloxacin
# [17] = system: Escherichia coli; assay: Antibacterial activity against Escherichia coli assessed as concentration required to obtain a zone of inhibition of 20 mm after 18 to 24 hr by disk diffusion method; assay type: functional
# [18] = system: Pseudomonas aeruginosa; assay: Antibacterial activity against Pseudomonas aeruginosa assessed as concentration required to obtain a zone of inhibition of 5 mm after 18 to 24 hr by disk diffusion method; assay type: functional
# [19] = system: Klebsiella pneumoniae; assay: Antibacterial activity against Klebsiella pneumoniae assessed as concentration required to obtain a zone of inhibition of 5 mm after 18 to 24 hr by disk diffusion method; assay type: functional
# [20] = system: Pseudomonas aeruginosa; assay: Antibacterial activity against Pseudomonas aeruginosa assessed as concentration required to obtain a zone of inhibition of 20 mm after 18 to 24 hr by disk diffusion method; assay type: functional
# [21] = system: Proteus mirabilis; assay: Antibacterial activity against Proteus mirabilis assessed as concentration required to obtain a zone of inhibition of 20 mm after 18 to 24 hr by disc diffusion method; assay type: functional
# [22] = system: Shigella flexneri; assay: Antibacterial activity against Shigella flexneri assessed as zone of inhibition at 5 to 40 ug/ml after 18 to 24 hr by disk diffusion method relative to gatifloxacin; assay type: functional
# [23] = system: Pseudomonas aeruginosa; assay: Antibacterial activity against Pseudomonas aeruginosa assessed as zone of inhibition at 5 to 40 ug/ml after 18 to 24 hr by disk diffusion method relative to gatifloxacin; assay type: functional
# [24] = system: Citrobacter; assay: Antibacterial activity against Citrobacter assessed as concentration required to obtain a zone of inhibition of 10 mm after 18 to 24 hr by disk diffusion method; assay type: functional
# [25] = system: Candida albicans; assay: Antifungal activity against Candida albicans assessed as concentration required to obtain a zone of inhibition of 20 mm after 7 days by disk diffusion method; assay type: functional
# [26] = system: Klebsiella pneumoniae; assay: Antibacterial activity against Klebsiella pneumoniae assessed as concentration required to obtain a zone of inhibition of 10 mm after 18 to 24 hr by disk diffusion method; assay type: functional
# [27] = system: Trichophyton rubrum; assay: Antifungal activity against Trichophyton rubrum assessed as concentration required to obtain a zone of inhibition of 20 mm after 7 days by disk diffusion method; assay type: functional
# [28] = system: Klebsiella pneumoniae; assay: Antibacterial activity against Klebsiella pneumoniae assessed as concentration required to obtain a zone of inhibition of 20 mm after 18 to 24 hr by disk diffusion method; assay type: functional
# [29] = system: Shigella flexneri; assay: Antibacterial activity against Shigella flexneri assessed as concentration required to obtain a zone of inhibition of 5 mm after 18 to 24 hr by disk diffusion method; assay type: functional
# [30] = system: Klebsiella pneumoniae; assay: Antibacterial activity against Klebsiella pneumoniae assessed as zone of inhibition at 5 to 40 ug/ml after 18 to 24 hr by disk diffusion method relative to gatifloxacin; assay type: functional
# [31] = system: Staphylococcus aureus; assay: Antibacterial activity against methicillin-resistant Staphylococcus aureus assessed as zone of inhibition at 5 to 40 ug/ml after 18 to 24 hr by disk diffusion method relative to gatifloxacin; assay type: functional
# [32] = system: Bacillus subtilis; assay: Antibacterial activity against Bacillus subtilis assessed as concentration required to obtain a zone of inhibition of 20 mm after 18 to 24 hr by disk diffusion method; assay type: functional
# [33] = system: Escherichia coli; assay: Antibacterial activity against Escherichia coli assessed as concentration required to obtain a zone of inhibition of 10 mm after 18 to 24 hr by disk diffusion method; assay type: functional
# [34] = system: Bacillus subtilis; assay: Antibacterial activity against Bacillus subtilis assessed as concentration required to obtain a zone of inhibition of 10 mm after 18 to 24 hr by disk diffusion method; assay type: functional
# [35] = system: Escherichia coli; assay: Antibacterial activity against Escherichia coli assessed as concentration required to obtain a zone of inhibition of 5 mm after 18 to 24 hr by disk diffusion method; assay type: functional
# [36] = system: Saccharomyces cerevisiae; assay: Antifungal activity against Saccharomyces cerevisiae assessed as zone of inhibition at 5 to 40 ug/ml after 7 days by disk diffusion method relative to gatifloxacin; assay type: functional
# [37] = system: Pseudomonas aeruginosa; assay: Antibacterial activity against Pseudomonas aeruginosa assessed as concentration required to obtain a zone of inhibition of 10 mm after 18 to 24 hr by disk diffusion method; assay type: functional
# [38] = system: Shigella sp.; assay: Antibacterial activity against Shigella typhi assessed as zone of inhibition after 18 to 24 hr by disc diffusion method relative to gatifloxacin; assay type: functional
# [39] = system: Candida albicans; assay: Antifungal activity against Candida albicans assessed as concentration required to obtain a zone of inhibition of 40 mm after 7 days by disk diffusion method; assay type: functional
# [40] = Antibacterial activity against Hofmanni bacterium assessed as concentration required to obtain a zone of inhibition of 10 mm after 18 to 24 hr by disc diffusion method
# [41] = system: Citrobacter; assay: Antibacterial activity against Citrobacter assessed as concentration required to obtain a zone of inhibition of 20 mm after 18 to 24 hr by disk diffusion method; assay type: functional
# [42] = system: Shigella flexneri; assay: Antibacterial activity against Shigella flexneri assessed as concentration required to obtain a zone of inhibition of 20 mm after 18 to 24 hr by disk diffusion method; assay type: functional
# [43] = Antibacterial activity against Hofmanni bacterium assessed as concentration required to obtain a zone of inhibition of 5 mm after 18 to 24 hr by disc diffusion method
# [44] = system: Citrobacter; assay: Antibacterial activity against Citrobacter assessed as zone of inhibition at 5 to 40 ug/ml after 18 to 24 hr by disk diffusion method relative to gatifloxacin; assay type: functional
# [45] = system: Shigella flexneri; assay: Antibacterial activity against Shigella flexneri assessed as concentration required to obtain a zone of inhibition of 10 mm after 18 to 24 hr by disk diffusion method; assay type: functional
compound,measurement,setting,value
C[C@@H]1CN(c2c(F)c(N)c3c(=O)c(C(=O)O)cn(C4CC4)c3c2F)C[C@H](C)N1 [SPARFLOXACIN],Activity,[1],11 µg/mL
same,Activity,[2],12 µg/mL
same,inhibition zone (IZ),[3],90%
same,Activity,[4],24 µg/mL
same,inhibition zone (IZ),[5],176%
same,inhibition zone (IZ),[6],169%
same,inhibition zone (IZ),[7],98.01%
same,Activity,[8],10 µg/mL
same,Activity,[9],9 µg/mL
same,inhibition zone (IZ),[10],70%
same,Activity,[11],8 µg/mL
same,Activity,[12],14 µg/mL
same,Activity,[13],12 µg/mL
same,inhibition zone (IZ),[14],94.6%
same,Activity,[15],10 µg/mL
same,inhibition zone (IZ),[16],110%
same,Activity,[17],14 µg/mL
same,Activity,[18],11 µg/mL
same,Activity,[19],10 µg/mL
same,Activity,[20],15 µg/mL
same,Activity,[21],15 µg/mL
same,inhibition zone (IZ),[22],75.1%
same,inhibition zone (IZ),[23],117.6%
same,Activity,[24],9 µg/mL
same,Activity,[25],13 µg/mL
same,Activity,[26],13 µg/mL
same,Activity,[27],20 µg/mL
same,Activity,[28],16 µg/mL
same,Activity,[29],9 µg/mL
same,inhibition zone (IZ),[30],96.1%
same,inhibition zone (IZ),[31],77.2%
same,Activity,[32],15 µg/mL
same,Activity,[33],11 µg/mL
same,Activity,[34],13 µg/mL
same,Activity,[35],9 µg/mL
same,inhibition zone (IZ),[36],0%
same,Activity,[37],13 µg/mL
same,inhibition zone (IZ),[38],87%
same,Activity,[39],17 µg/mL
same,Activity,[40],13 µg/mL
same,Activity,[41],10 µg/mL
same,Activity,[42],13 µg/mL
same,Activity,[43],11 µg/mL
same,inhibition zone (IZ),[44],42.73%
same,Activity,[45],11 µg/mL
